The values below come from article PMC6530635, “A Novel Single-Site Mutation in the Catalytic Domain of Protoporphyrinogen Oxidase IX (PPO) Confers Resistance to PPO-Inhibiting Herbicides” (Frontiers in Plant Science, 2019).

Assay [1] has as its target recombinant Amaranthus tuberculatus PPO2 wild-type enzyme (Amaranthus tuberculatus, UniProt Q0NZW9). In words: biochemical.
The subject of assay [2] is Amaranthus palmeri MIS-D population. Also on record: method as in Salas-Perez et al., 2017. To be noted: ref Salas-Perez et al., 2017, cited from earlier work; for Frequency of resistant plants / Response of MIS-D to 1X dose: MIS-D field population.
For assay [3], the system named is Amaranthus palmeri R39P population. Format: in vivo. To be noted: for Frequency of resistant plants: R39P F1 population, 2X recommended dose, 21 DAT, 25 seedlings.
Assay [4] concerns Amaranthus palmeri (Palmer amaranth) populations MIS-D, R39P, R43P and SS. Format: in vivo. Conditions: visual injury 21 DAT, foliar spray.

Read-outs that look alike come from different tables or passages of the source.

Sequence of recombinant Amaranthus tuberculatus PPO2 wild-type enzyme (Q0NZW9 1-534): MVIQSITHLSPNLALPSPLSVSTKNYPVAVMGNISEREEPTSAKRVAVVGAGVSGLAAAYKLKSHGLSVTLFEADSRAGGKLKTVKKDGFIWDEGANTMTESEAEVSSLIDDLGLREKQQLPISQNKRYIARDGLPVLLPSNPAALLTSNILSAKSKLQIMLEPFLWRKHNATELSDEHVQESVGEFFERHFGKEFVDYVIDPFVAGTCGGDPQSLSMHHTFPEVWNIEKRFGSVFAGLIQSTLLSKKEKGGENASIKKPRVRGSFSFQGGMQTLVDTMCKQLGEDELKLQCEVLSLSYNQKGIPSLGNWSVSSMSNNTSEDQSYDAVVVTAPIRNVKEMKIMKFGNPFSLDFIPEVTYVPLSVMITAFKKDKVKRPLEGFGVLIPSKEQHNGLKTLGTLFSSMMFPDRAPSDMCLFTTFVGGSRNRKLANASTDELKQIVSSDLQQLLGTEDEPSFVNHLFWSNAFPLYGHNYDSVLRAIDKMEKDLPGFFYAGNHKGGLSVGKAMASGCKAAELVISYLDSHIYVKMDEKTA

As for `O=C(O)c1cc(Oc2ccc(C(F)(F)F)cc2Cl)ccc1[N+](=O)[O-]` [Acifluorfen], the IC50 (in general, the concentration needed to halve the response being measured) in assay [1] worked out at 18.5 nM. The “Frequency of resistant plants” value in assay [2] (1X dose) is 1%; in assay [3], 8%. Besides, the Mortality in assay [2] (MIS-D, 1X dose) is recorded as > 90%. Further, the Survival rate in assay [3] (in vivo) is < 20%.
With `C#CCN1C(=O)COc2cc(F)c(N3C(=O)C4=C(CCCC4)C3=O)cc21` [Flumioxazin], the concentration for half-maximal inhibition (IC50) in assay [1] is 0.039 nM. In addition, in assay [2], the “Response of MIS-D to 1X dose” value was “resistant”. Further, the “Frequency of resistant plants” value in assay [2] (1X dose) was 40%; in assay [3] it was 60%; in assay [3] (listed as flumioxazin) it was ≥ 40%.
Consider `CC(C)Oc1cc(-n2nc(C(C)(C)C)oc2=O)c(Cl)cc1Cl` [Oxadiazon], for which the IC50 in assay [1] was determined as 0.7 nM.
As to `Cc1nn(-c2cc(NS(C)(=O)=O)c(Cl)cc2Cl)c(=O)n1C(F)F` [Sulfentrazone], the IC50 in assay [1] is 17.5 nM.
On the same count and under the same terms, for `C=CCOC(=O)C(C)(C)OC(=O)c1cc(-n2c(=O)cc(C(F)(F)F)n(C)c2=O)ccc1Cl` [Butafenacil] the value was 0.00896 nM.
For `CS(=O)(=O)NC(=O)c1cc(Oc2ccc(C(F)(F)F)cc2Cl)ccc1[N+](=O)[O-]` [Fomesafen], the IC50 in assay [1] turned out to be 1.32 nM. The “Response of MIS-D to 1X dose” value in assay [2] is reported as “resistant”. For the same molecule, in assay [2] (1X dose), the “Frequency of resistant plants” value is given as 42%. In addition, in assay [3] (R39P, 2X dose), the Survival rate is < 20%. Besides, the “ED50 (dose causing 50% herbicide injury)” value in assay [4] (MIS-D field population, PPO-resistant) is on record as 124 (101–147) g ai ha^-1; in assay [4] (R39P F1 population, PPO-resistant), 143 (122–165) g ai ha^-1; in assay [4] (R43P F1 population, PPO-resistant) it was 187 (174–202) g ai ha^-1; in assay [4] (SS population, PPO-sensitive) it was 12 (10–13) g ai ha^-1.
Consider `COC(=O)CSc1cc(/N=c2\sc(=O)n3n2CCCC3)c(F)cc1Cl` [Fluthiacet-methyl], for which the half-inhibitory concentration (IC50) in assay [1] was determined as 0.669 nM. In addition, in assay [2], the “Response of MIS-D to 1X dose” value is recorded as “resistant”.
Regarding `CCOc1cc(Oc2ccc(C(F)(F)F)cc2Cl)ccc1[N+](=O)[O-]` [Oxyfluorfen], the half-maximal inhibitory concentration (IC50) in assay [1] is 0.0342 nM.
In the case of `CC(C)N(C)S(=O)(=O)NC(=O)c1cc(-n2c(=O)cc(C(F)(F)F)n(C)c2=O)c(F)cc1Cl` [Saflufenacil], in assay [3] (in vivo), the Survival rate is listed as < 20%.
As to `CCOC(=O)C(C)OC(=O)c1cc(Oc2ccc(C(F)(F)F)cc2Cl)ccc1[N+](=O)[O-]` (stereo not shown) [Lactofen], the half-maximal inhibitory concentration (IC50) in assay [1] was determined as 0.056 nM. In addition, the “Response of MIS-D to 1X dose” value in assay [2] is on record as “resistant”. For the same molecule, the “Frequency of resistant plants” value in assay [2] (1X dose) was 23%; in assay [3], 40%; in assay [3] (listed as lactofen), ≥ 40%.
Take `Cc1nn(-c2cc(CC(Cl)C(=O)O)c(Cl)cc2F)c(=O)n1C(F)F` (stereo not shown) [Carfentrazone]: in assay [1], the half-inhibitory concentration (IC50) turned out to be 0.196 nM. Further, the “Response of MIS-D to 1X dose” value in assay [2] is on record as “resistant”. Besides, the “Frequency of resistant plants” value in assay [3] is 64%; in assay [3] (listed as carfentrazone), ≥ 40%.
On to `C#CCN(C)c1c(C#N)cnn1-c1nn2c(c1Cl)CCCC2` [Pyraclonil], for which the IC50 in assay [1] (read-out: Wild type sensitivity [IC50]) is 1.39 nM.
On to `CCOC(=O)COc1cc(-c2nn(C)c(OC(F)F)c2Cl)c(F)cc1Cl` [Pyraflufen-ethyl], for which, in assay [1], the IC50 turned out to be 0.0519 nM. Moreover, the “Response of MIS-D to 1X dose” value in assay [2] is given as “resistant”.
